Laboratory results reported in a compilation of properties of binary mixtures (doi:10.1021/je401124t).

Experiment: xn = mol fraction of the nth substance listed
Settings: 101 kPa

COP(=O)([O-])OC.Cn1cc[n+](C)c1 + CC(C)O
viscosity [mPa·s]
Settings	x2 = 0	x2 = 0.0999	x2 = 0.2032	x2 = 0.301	x2 = 0.402	x2 = 0.5002	x2 = 0.6	x2 = 0.7009	x2 = 0.7997	x2 = 0.9013
293.15 K	–	–	254	173.1	–	67	38.35	21.3	11.44	5.77
298.15 K	291	253	–	129.9	75.3	–	31.53	–	9.87	5
303.15 K	210	184.2	136.2	99.8	61.1	–	26.2	15.37	8.59	4.361
308.15 K	155.6	138.2	105	78.4	49.7	35.62	22.05	–	7.54	–
313.15 K	–	–	–	–	40.99	29.78	18.74	11.54	6.64	3.359
318.15 K	92.8	82.8	–	51.5	33.95	–	16.13	–	5.89	2.969
323.15 K	74.2	66.4	54	42.88	28.66	–	14.03	8.94	5.25	–

COP(=O)([O-])OC.Cn1cc[n+](C)c1 + CCCO
viscosity [mPa·s]
Settings	x2 = 0	x2 = 0.098	x2 = 0.1993	x2 = 0.3018	x2 = 0.4	x2 = 0.5002	x2 = 0.5996	x2 = 0.6995	x2 = 0.799	x2 = 0.8998
293.15 K	416	296	211	–	85.2	50.8	29.52	17.53	9.79	4.441
298.15 K	–	215	154.1	93	66.9	41.59	25.38	15.17	8.63	3.929
303.15 K	210	159	–	74.1	53.6	–	–	13.16	7.61	3.492
308.15 K	155.6	121.1	–	59.5	43.67	28.52	18.35	11.51	6.76	3.118
313.15 K	119.2	93.9	71.2	48.5	36.1	24.02	–	10.13	6.04	2.795
318.15 K	92.8	–	57.8	39.92	–	–	13.79	8.97	5.42	2.516
323.15 K	74.2	60.9	47.8	–	25.67	17.68	–	8	–	2.273

COP(=O)([O-])OC.Cn1cc[n+](C)c1 + CCO
viscosity [mPa·s]
Settings	x2 = 0	x2 = 0.0999	x2 = 0.2028	x2 = 0.3009	x2 = 0.4074	x2 = 0.5028	x2 = 0.6	x2 = 0.6992	x2 = 0.7999	x2 = 0.9
293.15 K	416	339	246	134.3	77.7	–	–	13.76	–	–
298.15 K	291	238	182.5	98.7	–	30.76	–	11.97	5.6	2.824
303.15 K	210	–	138.5	78.5	48.7	25.78	18.08	10.5	–	2.567
308.15 K	155.6	130.7	106.8	62.9	39.62	–	15.59	–	4.509	2.341
313.15 K	119.2	100.8	84	51	32.73	18.94	13.59	8.27	4.077	2.143
318.15 K	–	79.1	67	41.98	27.44	16.42	11.88	7.41	–	1.97
323.15 K	74.2	–	54.4	35.06	23.3	14.35	10.51	6.68	3.378	–

COP(=O)([O-])OC.Cn1cc[n+](C)c1 + CO
viscosity [mPa·s]
Settings	x2 = 0	x2 = 0.1054	x2 = 0.2009	x2 = 0.2977	x2 = 0.3984	x2 = 0.5028	x2 = 0.6018	x2 = 0.7027	x2 = 0.8002	x2 = 0.8998
293.15 K	416	278	174.8	111.5	68	36.25	–	10.21	4.9	–
298.15 K	–	201.1	121.9	–	–	29.9	17.07	9.02	4.419	1.776
303.15 K	210	149.7	–	67.9	43.95	–	14.7	8.01	4.006	1.642
308.15 K	155.6	114.3	–	54.4	36.27	–	12.81	7.16	3.65	1.523
313.15 K	119.2	89.4	60.5	44.4	30.38	18.06	11.25	6.44	3.336	1.416
318.15 K	92.8	–	49.2	36.86	25.8	15.62	9.96	–	3.061	1.322
323.15 K	74.2	58.3	40.66	–	22.16	–	8.88	5.3	2.82	1.243

CC(C)O + COP(=O)([O-])OC.Cn1cc[n+](C)c1
x1 = 1
Settings	viscosity [mPa·s]
293.15 K	2.439
298.15 K	2.134
303.15 K	1.845
308.15 K	1.603
313.15 K	1.4
318.15 K	1.228
323.15 K	1.083

CCCO + COP(=O)([O-])OC.Cn1cc[n+](C)c1
x1 = 1
Settings	viscosity [mPa·s]
293.15 K	2.188
298.15 K	1.974
303.15 K	1.761
308.15 K	1.575
313.15 K	1.416
318.15 K	1.273
323.15 K	1.15

CCO + COP(=O)([O-])OC.Cn1cc[n+](C)c1
x1 = 1
Settings	viscosity [mPa·s]
293.15 K	1.192
298.15 K	1.085
303.15 K	0.99
308.15 K	0.906
313.15 K	0.831
318.15 K	0.764
323.15 K	0.704

CO + COP(=O)([O-])OC.Cn1cc[n+](C)c1
x1 = 1
Settings	viscosity [mPa·s]
293.15 K	0.586
298.15 K	0.552
308.15 K	0.491
313.15 K	0.465
323.15 K	0.418
